The results in this text go back to PubChem BioAssay AID1259246 (Broad Institute, 2017).

The structures appear in SMILES notation. Inconclusive results are not listed. Activity calls are given as the source filed them.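 Rule for the calls: active = valid dose-response fit whose half-maximal growth-inhibiting concentration is at or below a set limit above the top tested dose; inconclusive = flat fit with effect between 30 and 70%, or poor fit; inactive = half-maximal concentration above a set limit.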

The first assay can be described thus: antibacterial activity against Clostridioides difficile – 10-point retest, dose response (AID 1259246). The note with it: Clostridioides difficile clinical isolate growth, OD600, 24 h; at 60 µM (top of the series).
Turning to `C/C=C/c1ccc2c(c1)O[C@@H](CN(C)Cc1ccc(C(=O)O)cc1)[C@H](C)CN([C@H](C)CO)S2(=O)=O`, the activity change, negative = inhibition is 8.2% (inactive).

Turning to `O=C(O)C[C@H]1C[C@@H]2c3cc(NC(=O)C4CCC4)ccc3O[C@@H]2[C@@H](CO)O1`, the activity change, negative = inhibition was -2.3% (inactive).

The assay is the same for the next values; noted with them: Clostridioides difficile clinical isolate growth, OD600, 24 h; at 120 µM (top of the series).
Turning to `CO[C@@H]1CN(C)C(=O)c2cc(NC(=O)c3nc4ccccc4s3)ccc2OC[C@H](C)N(Cc2ccncc2)C[C@@H]1C`, the activity change, negative = inhibition was 13.2% (inactive).

Take `COc1ccccc1-c1ccc2c(c1)O[C@H](CN(C)Cc1ccc3c(c1)OCO3)[C@H](C)CN([C@@H](C)CO)S2(=O)=O`: the activity change, negative = inhibition is 31.6% (inactive).

On to `COc1ccc(NC(=O)Nc2cccc3c2O[C@H](CN(C)Cc2ccc(Oc4ccccc4)cc2)[C@@H](C)CN([C@@H](C)CO)C3=O)cc1`, for which the activity change, negative = inhibition was 19.2% (inactive).

As for `COc1ccc(-c2ccc([C@H]3[C@H](C#N)N(C(=O)c4cccc(F)c4)[C@H]3CO)cc2)cc1`, the activity change, negative = inhibition is 21.7% (inactive).

On to `C[C@@H]1CN([C@H](C)CO)C(=O)c2cc(NC(=O)Nc3cccc4ccccc34)ccc2O[C@@H](C)CCCCO[C@@H]1CN(C)S(=O)(=O)c1ccc(F)cc1`, for which the activity change, negative = inhibition is 12% (inactive).

In the case of `C[C@@H]1CN([C@@H](C)CO)C(=O)c2ccccc2-c2ccccc2CO[C@@H]1CN(C)S(=O)(=O)c1ccc([N+](=O)[O-])cc1`, the activity change, negative = inhibition is 35.2% (inactive).

Consider `C[C@@H]1CN([C@@H](C)CO)C(=O)Cc2cc(NC(=O)CCCN(C)C)ccc2O[C@H]1CN(C)C(=O)Nc1ccccc1`, for which the activity change, negative = inhibition was -1.61% (inactive).

Take `C[C@@H]1CN([C@@H](C)CO)C(=O)c2cccc(NC(=O)Nc3ccc(C(F)(F)F)cc3)c2O[C@H]1CN(C)Cc1ccc(-c2ccccc2)cc1`: the activity change, negative = inhibition was 20.3% (inactive).

`CO[C@H]1CN(C)C(=O)c2cc(NC(=O)c3nc4ccccc4s3)ccc2OC[C@H](C)N(Cc2ccncc2)C[C@@H]1C`: the activity change, negative = inhibition was 4.91% (inactive).

`O=S(=O)(NCC[C@H]1CC[C@H](NS(=O)(=O)c2ccccc2Cl)[C@H](CO)O1)c1ccc(Cl)cc1`: the activity change, negative = inhibition was -7.26% (inactive).

As to `COc1ccc(-c2ccc([C@H]3[C@H](C#N)N[C@H]3CO)cc2)cc1`, the activity change, negative = inhibition was -2.73% (inactive).

In the case of `CC(C)NC(=O)Nc1ccc2c(c1)CC(=O)N([C@@H](C)CO)C[C@@H](C)[C@@H](CN(C)Cc1ccc(-c3ccccc3)cc1)O2`, the activity change, negative = inhibition is 25% (inactive).

On to `C[C@H](CO)N1C[C@H](C)[C@@H](CN(C)Cc2ccc(-c3ccccc3)cc2)Oc2c(NC(=O)Nc3ccc(C(F)(F)F)cc3)cccc2C1=O`, for which the activity change, negative = inhibition is 12.2% (inactive).

In the case of `C[C@H](CO)N1C[C@H](C)[C@@H](CN(C)Cc2ccc(-c3ccccc3)cc2)Oc2c(NC(=O)Nc3ccc4c(c3)OCO4)cccc2C1=O`, the activity change, negative = inhibition is 2.74% (inactive).

Take `C[C@@H]1CN([C@@H](C)CO)C(=O)c2cccc(NC(=O)Nc3ccc4c(c3)OCO4)c2O[C@@H]1CN(C)Cc1ccccc1`: the activity change, negative = inhibition was 19.1% (inactive).

On to `C[C@@H]1CCCCO[C@@H](CN(C)S(=O)(=O)c2ccc(F)cc2)[C@@H](C)CN([C@@H](C)CO)C(=O)c2cc(NC(=O)Nc3cccc4ccccc34)ccc2O1`, for which the activity change, negative = inhibition is 12.1% (inactive).

As to `CC(C)CC#Cc1ccc2c(c1)O[C@@H](CN(C)Cc1ccc3c(c1)OCO3)[C@H](C)CN([C@H](C)CO)S2(=O)=O`, the activity change, negative = inhibition was 17.8% (inactive).

In the case of `C[C@@H]1CCCCO[C@H](CN(C)S(=O)(=O)c2ccc(F)cc2)[C@@H](C)CN([C@@H](C)CO)C(=O)c2cc(NC(=O)Nc3cccc4ccccc34)ccc2O1`, the activity change, negative = inhibition was 19.1% (inactive).

For the compound `C[C@H]1CN([C@@H](C)CO)S(=O)(=O)c2ccc(C#CC3CCCCC3)cc2O[C@@H]1CN(C)Cc1cccnc1`, the activity change, negative = inhibition is 20.8% (inactive).

Regarding `C[C@@H]1CN([C@@H](C)CO)C(=O)c2cccc(NC(=O)Nc3ccccc3)c2O[C@H]1CN(C)Cc1ccc(Oc2ccccc2)cc1`, the activity change, negative = inhibition is 26.1% (inactive).

`C[C@H](CO)N1C[C@H](C)[C@@H](CN(C)C(=O)NC2CCCCC2)Oc2c(NC(=O)Nc3ccc(F)cc3)cccc2C1=O`: the activity change, negative = inhibition was 9.73% (inactive).

With `Cc1ccc(-c2ccc3c(c2)O[C@@H](CN(C)Cc2cccnc2)[C@H](C)CN([C@@H](C)CO)S3(=O)=O)cc1`, the activity change, negative = inhibition was 10.2% (inactive).

Regarding `CC(C)CC#Cc1ccc2c(c1)O[C@H](CN(C)Cc1ccccc1F)[C@H](C)CN([C@@H](C)CO)S2(=O)=O`, the activity change, negative = inhibition was 26.2% (inactive).

Turning to `CC(C)CC#Cc1ccc2c(c1)O[C@H](CN(C)Cc1cccnc1)[C@@H](C)CN([C@@H](C)CO)S2(=O)=O`, the activity change, negative = inhibition was 20.5% (inactive).

On to `C[C@@H]1CN([C@@H](C)CO)C(=O)Cc2cc(NC(=O)C3CCCCC3)ccc2O[C@@H]1CN(C)Cc1ccc(-c2ccccc2)cc1`, for which the activity change, negative = inhibition was 19% (inactive).

Regarding `CO[C@@H]1CN(C)C(=O)c2ccc(NC(=O)C3CCC3)cc2OC[C@@H](C)N(Cc2ccncc2)C[C@H]1C`, the activity change, negative = inhibition was -0.707% (inactive).

Consider `C[C@@H]1CN([C@@H](C)CO)C(=O)Cc2cc(NC(=O)C3CC3)ccc2O[C@@H]1CN(C)Cc1ccc(-c2ccccc2)cc1`, for which the activity change, negative = inhibition was 20.7% (inactive).

With `C[C@H](CO)N1C[C@H](C)[C@@H](CN(C)S(=O)(=O)c2ccc(F)cc2)OCCCC[C@H](C)Oc2ccc(NC(=O)Nc3cccc4ccccc34)cc2C1=O`, the activity change, negative = inhibition is 16.3% (inactive).

With `C[C@H](CO)N1C[C@H](C)[C@@H](CN(C)C(=O)Nc2ccc(C(F)(F)F)cc2)Oc2c(NC(=O)Nc3cccc4ccccc34)cccc2C1=O`, the activity change, negative = inhibition was 36.8% (inactive).

Consider `COc1ccc(CN(C)C[C@H]2Oc3ccc(NC(=O)C4CC4)cc3CC(=O)N([C@@H](C)CO)C[C@H]2C)cc1`, for which the activity change, negative = inhibition is -3.18% (inactive).

For the compound `CO[C@@H]1CN(C)C(=O)c2ccc(NC(=O)c3nc4ccccc4s3)cc2OC[C@@H](C)NC[C@H]1C`, the activity change, negative = inhibition was -7.73% (inactive).

Consider `CNC[C@H]1Oc2cc(Br)ccc2S(=O)(=O)N([C@@H](C)CO)C[C@H]1C`, for which the activity change, negative = inhibition is 5.27% (inactive).

Consider `CC(C)CC#Cc1ccc2c(c1)O[C@H](CN(C)Cc1ccc3c(c1)OCO3)[C@H](C)CN([C@H](C)CO)S2(=O)=O`, for which the activity change, negative = inhibition was 15.4% (inactive).

Consider `Cc1ccc(-c2ccc3c(c2)O[C@H](CN(C)Cc2cccnc2)[C@@H](C)CN([C@@H](C)CO)S3(=O)=O)cc1`, for which the activity change, negative = inhibition was 25.7% (inactive).

On to `C[C@@H]1CN([C@@H](C)CO)C(=O)Cc2cc(NC(=O)c3ccncc3)ccc2O[C@@H]1CN(C)S(=O)(=O)c1cn(C)cn1`, for which the activity change, negative = inhibition is 37.2% (inactive).

On to `C[C@@H]1CCCCO[C@@H](CN(C)S(=O)(=O)c2ccc(F)cc2)[C@H](C)CN([C@@H](C)CO)C(=O)c2cc(NC(=O)Nc3cccc4ccccc34)ccc2O1`, for which the activity change, negative = inhibition was 18.9% (inactive).

As for `CO[C@@H]1CN(C)C(=O)c2cc(NC(=O)c3ccc(-c4ccccc4)cc3)ccc2OC[C@H](C)NC[C@H]1C`, the activity change, negative = inhibition was 9.68% (inactive).

Consider `C[C@@H]1CN([C@@H](C)CO)S(=O)(=O)c2ccc(C#CCN(C)C)cc2O[C@@H]1CN(C)Cc1ccc2c(c1)OCO2`, for which the activity change, negative = inhibition is 2.58% (inactive).

The same assay, now with this note: Clostridioides difficile clinical isolate growth, OD600, 24 h; at 135 µM (top of the series).
Turning to `C[C@H]1CN([C@@H](C)CO)C(=O)Cc2cc(NC(=O)CCCN(C)C)ccc2O[C@@H]1CN(C)Cc1ccc(-c2ccccc2)cc1`, the activity change, negative = inhibition was -3.4% (inactive).

On to `O=C(C[C@H]1C[C@@H]2c3cc(NC(=O)C4CCC4)ccc3O[C@@H]2[C@@H](CO)O1)NCc1ccc2c(c1)OCO2`, for which the activity change, negative = inhibition was -9.69% (inactive).

Take `C[C@@H]1CN([C@@H](C)CO)C(=O)Cc2cc(NC(=O)Nc3ccccc3)ccc2O[C@@H]1CN(C)Cc1ccc(-c2ccccc2)cc1`: the activity change, negative = inhibition is 23.5% (inactive).

For the compound `CO[C@H]1CN(C)C(=O)c2cc(NS(=O)(=O)c3ccc(-c4ccccc4)cc3)ccc2OC[C@H](C)NC[C@H]1C`, the activity change, negative = inhibition is 10.6% (inactive).

For `C[C@@H]1CN([C@H](C)CO)C(=O)Cc2cc(NC(=O)Nc3ccccc3)ccc2O[C@@H]1CN(C)Cc1ccc(-c2ccccc2)cc1`, the activity change, negative = inhibition was 12.7% (inactive).

With `CO[C@@H]1CN(C)C(=O)c2cc(NC(=O)c3nc4ccccc4s3)ccc2OC[C@@H](C)N(Cc2ccncc2)C[C@H]1C`, the activity change, negative = inhibition is 14.2% (inactive).

Take `O=C(C[C@@H]1C[C@H]2c3cc(NC(=O)C4CCC4)ccc3O[C@H]2[C@@H](CO)O1)NCc1ccc(Cl)cc1`: the activity change, negative = inhibition is 6.13% (inactive).

On to `C[C@@H]1CN([C@@H](C)CO)C(=O)c2cc(NC(=O)Nc3cccc4ccccc34)ccc2O[C@@H](C)CCCCO[C@@H]1CN(C)S(=O)(=O)c1ccc(F)cc1`, for which the activity change, negative = inhibition was 17.6% (inactive).

For `O=C(N[C@H]1CC[C@H](CCNS(=O)(=O)Cc2ccccc2)O[C@H]1CO)c1ccc2c(c1)OCO2`, the activity change, negative = inhibition was -7.24% (inactive).

As to `O=C(C[C@H]1C[C@H]2c3cc(NC(=O)Nc4ccccc4)ccc3O[C@H]2[C@@H](CO)O1)NC1CCCC1`, the activity change, negative = inhibition was 11% (inactive).

With `COc1ccc(CN(C)C[C@H]2Oc3ccc(NC(=O)C4CC4)cc3CC(=O)N([C@H](C)CO)C[C@H]2C)cc1`, the activity change, negative = inhibition is 0.998% (inactive).

`C[C@@H]1CN([C@@H](C)CO)C(=O)Cc2cc(NS(C)(=O)=O)ccc2O[C@@H]1CN(C)Cc1ccc(Oc2ccccc2)cc1`: the activity change, negative = inhibition is 7.12% (inactive).

On to `C[C@@H]1CN([C@@H](C)CO)C(=O)Cc2cc(NS(C)(=O)=O)ccc2O[C@@H]1CN(C)Cc1ccc(-c2ccccc2)cc1`, for which the activity change, negative = inhibition is 16.9% (inactive).

`C[C@@H]1CN([C@@H](C)CO)C(=O)Cc2cc(NC(=O)C3CC3)ccc2O[C@H]1CN(C)Cc1ccc(Oc2ccccc2)cc1`: the activity change, negative = inhibition was 48% (inactive).
